Data published in patent US20070281992A1, “COMBINATION OF GYRASE B INHIBITORS AND PROTEIN SYNTHESIS INHIBITORS AND USES THEREOF” (priority 2006, published 2007).
Where two headings read alike, the source gives them in different places.

Experiments:
[1] = tested on: Methicillin-Susceptible Staphylococcus aureus Isolates; test: MIC assay (NCCLS broth dilution), MSSA clinical isolates; type: cell-based; settings: for MIC: read-out: Minimal Inhibitory Concentration
Description: (§1) Antibiotics: novobiocin, tetracycline, minocycline, oxacillin, and vancomycin were all purchased from Sigma-Aldrich. Linezolid was obtained from Pfizer, Inc. Novobiocin/tetracycline and novobiocin/minocycline were tested in a 2.5:1 ratio to mimic the serum levels. (Vavra, J. J., 1967, Development of resistance to novobiocin, tetracycline, and novobiocin-tetracycline combinations in Staphylococcus aureus populations, J. Bacteriol 93(3):801). Compounds were tested across a concentration range consisting of 11 two-fold serial dilutions of test agent.
(§2) Stock solutions were prepared in sterile deionized water; novobiocin stock concentration was 1600 μg/mL and all other drugs stock solutions were prepared at 640 μg/mL. The stock solutions were allowed to sit at room temperature for one hour to auto-sterilize prior to use in the test. All compounds were in solution in water. The control agent was vancomycin hydrochloride, Sigma Chemical Lot # 015K0825.
(§3) The test organisms for the assay were 52 MSSA, 52 MRSA, 8 VISA, 7 VISE, and 3 LRSA isolates. Quality control strains included Staphylococcus aureus 0100 (ATCC 29213) and Enterococcus faecalis (ATCC 29212).
(§4) The MIC assay was performed according to published NCCLS guidelines. (National Committee for Clinical Laboratory Standards, Methods for Dilution Antimicrobial Susceptibility Tests for Bacteria that Grow Aerobically; Approved Standard-Sixth Edition, NCCLS Document M7-A6 [ISBN 1-56238-486-4], NCCLS, 940 West Valley Road, Suite 1400, Wayne, Pa. 19087-1898 USA, 2003). The test medium was Mueller Hinton II Broth for all organisms.

[2] = tested on: Methicillin-Resistant Staphylococcus aureus Isolates; test: MIC assay (NCCLS broth dilution), MRSA clinical isolates; type: cell-based; settings: for MIC: Staphylococcus aureus, read-out: Minimal Inhibitory Concentration
Description: as §1, §2, §3, §4

[3] = Staphylococcus aureus, 52 MSSA isolates, combinations at 2.5:1, given as NB/partner

CN(C)c1ccc(O)c2c1C[C@H]1C[C@H]3[C@H](N(C)C)C(O)=C(C(N)=O)C(=O)[C@@]3(O)C(O)=C1C2=O [MI, minocycline]
MIC Range ([1]; 52 MSSA isolates, Mueller Hinton II Broth, combinations at 2.5:1, given as NB/partner): .06 to .12 µg/mL
MIC ([1]; Staphylococcus aureus, MSSA isolate 133, 03MAR06): 0.06 µg/mL
MIC ([1]; Staphylococcus aureus, MSSA isolate 134, 03MAR06): 0.06 µg/mL
MIC ([1]; Staphylococcus aureus, MSSA isolate 135, 03MAR06): 0.06 µg/mL
MIC ([1]; Staphylococcus aureus, MSSA isolate 753, 22FEB06): 0.12 µg/mL
MIC ([1]; Staphylococcus aureus, MSSA isolate 754, 22FEB06): 0.12 µg/mL
MIC ([1]; Staphylococcus aureus, MSSA isolate 754, 24FEB06): 0.12 µg/mL
MIC ([1]; Staphylococcus aureus, MSSA isolate 755, 22FEB06): 0.12 µg/mL
MIC ([1]; Staphylococcus aureus, MSSA isolate 756, 03MAR06): 0.06 µg/mL
MIC ([1]; Staphylococcus aureus, MSSA isolate 779, 22FEB06): 0.12 µg/mL
MIC ([1]; Staphylococcus aureus, MSSA isolate 780, 03MAR06): 0.12 µg/mL
MIC ([1]; Staphylococcus aureus, MSSA isolate 781, 03MAR06): 0.06 µg/mL
MIC ([1]; Staphylococcus aureus, MSSA isolate 782, 22FEB06): 0.12 µg/mL
MIC ([1]; Staphylococcus aureus, MSSA isolate 783, 22FEB06): 0.12 µg/mL
MIC ([1]; Staphylococcus aureus, MSSA isolate 784, 22FEB06): 0.12 µg/mL
MIC ([1]; Staphylococcus aureus, MSSA isolate 785, 22FEB06): 0.12 µg/mL
MIC ([1]; Staphylococcus aureus, MSSA isolate 786, 22FEB06): 0.12 µg/mL
MIC ([1]; Staphylococcus aureus, MSSA isolate 787, 22FEB06): 0.12 µg/mL
MIC ([1]; Staphylococcus aureus, MSSA isolate 788, 22FEB06): 0.12 µg/mL
MIC ([1]; Staphylococcus aureus, MSSA isolate 789, 24FEB06): 0.12 µg/mL
MIC ([1]; Staphylococcus aureus, MSSA isolate 790, 24FEB06): 0.12 µg/mL
MIC ([1]; Staphylococcus aureus, MSSA isolate 791, 24FEB06): 0.12 µg/mL
MIC ([1]; Staphylococcus aureus, MSSA isolate 792, 03MAR06): 0.06 µg/mL
MIC ([1]; Staphylococcus aureus, MSSA isolate 793, 24FEB06): 0.12 µg/mL
MIC ([1]; Staphylococcus aureus, MSSA isolate 794, 24FEB06): 0.12 µg/mL
MIC ([1]; Staphylococcus aureus, MSSA isolate 994, 22FEB06): 0.12 µg/mL
MIC ([1]; Staphylococcus aureus, MSSA isolate 995, 03MAR06): 0.12 µg/mL
MIC ([1]; Staphylococcus aureus, MSSA isolate 996, 22FEB06): 0.06 µg/mL
MIC ([1]; Staphylococcus aureus, MSSA isolate 997, 22FEB06): 0.12 µg/mL
MIC ([1]; Staphylococcus aureus, MSSA isolate 998, 03MAR06): 0.06 µg/mL
MIC ([1]; Staphylococcus aureus, MSSA isolate 999, 22FEB06): 0.12 µg/mL
MIC ([1]; Staphylococcus aureus, MSSA isolate 1000, 24FEB06): 0.12 µg/mL
MIC ([1]; Staphylococcus aureus, MSSA isolate 1001, 24FEB06): 0.12 µg/mL
MIC ([1]; Staphylococcus aureus, MSSA isolate 1002, 24FEB06): 0.12 µg/mL
MIC ([1]; Staphylococcus aureus, MSSA isolate 1003, 03MAR06): 0.06 µg/mL
MIC ([1]; Staphylococcus aureus, MSSA isolate 1005, 24FEB06): 0.06 µg/mL
MIC ([1]; Staphylococcus aureus, MSSA isolate 1006, 24FEB06): 0.12 µg/mL
MIC ([1]; Staphylococcus aureus, MSSA isolate 1007, 24FEB06): 0.12 µg/mL
MIC ([1]; Staphylococcus aureus, MSSA isolate 1008, 24FEB06): 0.06 µg/mL
MIC ([1]; Staphylococcus aureus, MSSA isolate 1009, 24FEB06): 0.12 µg/mL
MIC ([1]; Staphylococcus aureus, MSSA isolate 1131, 24FEB06): 0.06 µg/mL
MIC ([1]; Staphylococcus aureus, MSSA isolate 1132, 03MAR06): 0.06 µg/mL
MIC ([1]; Staphylococcus aureus, MSSA isolate 1133, 24FEB06): 0.12 µg/mL
MIC ([1]; Staphylococcus aureus, MSSA isolate 1134, 24FEB06): 0.12 µg/mL
MIC ([1]; Staphylococcus aureus, MSSA isolate 1654, 03MAR06): 0.12 µg/mL
MIC ([1]; Staphylococcus aureus, MSSA isolate 1656, 03MAR06): 0.06 µg/mL
MIC ([1]; Staphylococcus aureus, MSSA isolate 1662, 03MAR06): 0.06 µg/mL
MIC ([1]; Staphylococcus aureus, MSSA isolate 1663, 03MAR06): 0.12 µg/mL
MIC ([1]; Staphylococcus aureus, MSSA isolate 1666, 03MAR06): 0.06 µg/mL
MIC ([1]; Staphylococcus aureus, MSSA isolate 1667, 03MAR06): 0.12 µg/mL
MIC ([1]; Staphylococcus aureus, MSSA isolate 1668, 03MAR06): 0.06 µg/mL
MIC ([1]; Staphylococcus aureus, MSSA isolate 1671, 03MAR06): 0.06 µg/mL
MIC ([1]; Staphylococcus aureus, MSSA isolate 1728, 03MAR06): 0.06 µg/mL
MIC ([1]; Staphylococcus aureus, MSSA isolate 1728, retest 09MAR06): 0.06 µg/mL
MIC50 [1, 3]: 0.12 µg/mL
MIC90 [1, 3]: 0.12 µg/mL
MIC Range ([2]; 52 MRSA isolates, combinations at 2.5:1, given as NB/partner): .06 to .16 µg/mL
MIC ([2]; MRSA isolate 757, 24FEB06): 8 µg/mL
MIC ([2]; MRSA isolate 758, 03MAR06): 0.12 µg/mL
MIC ([2]; MRSA isolate 758, 24FEB06): 0.12 µg/mL
MIC ([2]; MRSA isolate 760, 03MAR06): 0.12 µg/mL
MIC ([2]; MRSA isolate 760, 24FEB06): 0.12 µg/mL
MIC ([2]; MRSA isolate 763, 22FEB06): 0.12 µg/mL
